Earlier results as cited in US20180327354A1, “Unnatural Analogues of Calcitriol and Uses Thereof” (Vidasym, Inc., priority 2009, published 2018).
Where two headings read alike, the source gives them in different places.

Assays:
[1] = test system: uremic rats; conditions: cited from earlier work
[2] = clinical studies, Martin et al., 2001; cited from earlier work
[3] = Slatopolsky et al., 1998, converted from ng/rat

## C[C@H](/C=C/[C@H](C)C(C)(C)O)[C@H]1CC[C@H]2/C(=C/C=C3C[C@@H](O)C[C@H](O)C3)CCC[C@]12C [paricalcitol]
[1]; Noonan et al., 2008
  dose at which compound raises serum Ca: 0.083 µg/kg
  dose at which compound starts to suppress serum PTH: 0.083 µg/kg
[1]; [3]
  dose at which compound raises serum Ca: ~0.0625 µg/kg
  dose at which compound starts to suppress serum PTH: ~0.02 µg/kg
[1]; Slatopolsky et al., 1998
  dose at which compound raises serum Ca: 25 ng/rat
  dose at which compound starts to suppress serum PTH: 8 ng/rat
[2]
  fold less potent in raising serum calcium than calcitriol: 10 fold
  fold less potent in suppressing PTH than calcitriol: about 3 fold
